# Data taken from patent US11242340B2, “Crystal forms of demethyleneberberine hydrochloride and preparation method therefor” (priority 2018, dated 2022).
# Entries after “also recorded” stand apart in the source; their conditions may differ. Where a name gives a salt, the structure may show the parent alone. Read-outs that look alike come from different tables or passages of the source.
# Experiments:
# [1] = Solubility in methanol system at different temperatures, HPLC; type: physicochemical; settings: FIG. 14, hydrochloride
# Procedure: Demethyleneberberine hydrochloride crystals A, B, C and D are taken in an appropriate amount and the solubility of demethyleneberberine hydrochloride crystals A, B, C and D at different temperatures in a methanol system is studied respectively. 20 μl of sample is taken at each temperature node and detected by HPLC.
# [2] = Solubility in water system at different temperatures, HPLC; type: physicochemical; settings: hydrochloride; for Solubility comparison of the four crystal forms (summary): summary over water, methanol and ethanol systems; for Solubility ranking among the four crystal forms: water system, different temperatures, FIG. 13
# Procedure: Demethyleneberberine hydrochloride crystals A, B, C and D are taken in an appropriate amount and the solubility of demethyleneberberine hydrochloride crystals A, B, C and D at different temperatures in a water system is studied respectively. 20 μl of sample is taken at each temperature node and detected by HPLC.
# [3] = Solubility in ethanol system at different temperatures, HPLC; type: physicochemical; settings: FIG. 15, hydrochloride
# Procedure: Demethyleneberberine hydrochloride crystals A, B, C and D are taken in an appropriate amount and the solubility of demethyleneberberine hydrochloride crystals A, B, C and D at different temperatures in an ethanol system is studied respectively. 20 μl of sample is taken at each temperature node and detected by HPLC.
# [4] = Stability in high-temperature experiment (60±2° C.); type: physicochemical; settings: for X-Ray Powder Diffraction / Content (%) / Content of Relevant Substance (%) / Stability in the high-temperature environment: 60±2° C.; for Stability in the high-temperature environment / Stability under stability test conditions (summary): hydrochloride; for Stability under stability test conditions (summary): summary over high temperature, high humidity and strong light irradiation
# Procedure: Demethyleneberberine hydrochloride crystals A, B, C and D are taken in an appropriate amount and placed in plates numbered as A1, B1, C1 and D1 respectively, and then the plates are placed in a high-temperature environment at 60±2° C. respectively for stability test.
# [5] = Stability in strong light irradiation experiment (4,500 lx±500 lx); type: physicochemical; settings: for Stability in the strong light irradiation environment: hydrochloride
# From the text: Demethyleneberberine hydrochloride crystals A, B, C and D are taken in an appropriate amount and placed in plates numbered as A3, B3, C3 and D3 respectively, and then the plates are placed in a strong light irradiation environment at 4,500 lx±500 lx respectively for stability test.
# [6] = Stability in high-humidity experiment (RH90±5%); type: physicochemical
# From the text: Demethyleneberberine hydrochloride crystals A, B, C and D are taken in an appropriate amount and placed in plates numbered as A2, B2, C2 and D2 respectively, and then the plates are placed in a high-humidity environment at RH90±5% respectively for stability test.
# [7] = Determination of blood concentration in rats after ig administration; type: in vivo; settings: ig 200 mg/kg, plasma; for AUC: calculated from the experimental results
# Procedure: Male SD rats are adaptively bred for 3 days, and rats having (220±20) g body weight are selected and divided into 5 groups, namely, blank group, demethyleneberberine hydrochloride crystal form A group, demethyleneberberine hydrochloride crystal form B group, demethyleneberberine hydrochloride crystal form C group and demethyleneberberine hydrochloride crystal form D group. Food supply is stopped for 12 h for gastric emptying before the experiment. For the rats in the experimental groups, ig (intragastric) administration dosage is 200 mg/kg. 0.2 ml of blood is taken from the orbits of the rats at 5 min., 15 min., 30 min., 1 h, 2 h, 6 h and 12 h respectively after ig administration, the whole blood is centrifuged, and 100 μl of plasma is taken and frozen at −20° C. for use later. 100 μl of plasma sample is taken, 200 μl of methanol is added into the plasma sample, the mixture is vortexed for 5 min., and then centrifuged at 10,000 r/min. for 15 min. in a centrifuge; the supernatant is taken and tested by HPLC. […] Through calculation on the basis of the experimental results, it is determined: DAUC=3.675 μg×ml^−1×h>AAUC=1.247 μg×ml^−1×h>BAUC=1.150 μg×ml^−1×h>CAUC=1.077 μg×ml^−1×h.
# [8] = day 0, listed as A1, hydrochloride
# [9] = day 5, listed as A1, hydrochloride
# [10] = day 10, listed as A1, hydrochloride
# [11] = day 0, listed as A3, hydrochloride
# [12] = day 5, listed as A3, hydrochloride
# [13] = day 10, listed as A3, hydrochloride
# [14] = day 0, listed as A2, hydrochloride
# [15] = day 5, listed as A2, hydrochloride
# [16] = day 10, listed as A2, hydrochloride
# [17] = day 0, listed as B1, hydrochloride
# [18] = day 5, listed as B1, hydrochloride
# [19] = day 10, listed as B1, hydrochloride
# [20] = day 0, listed as B3, hydrochloride
# [21] = day 5, listed as B3, hydrochloride
# [22] = day 10, listed as B3, hydrochloride
# [23] = day 0, listed as B2, hydrochloride
# [24] = day 5, listed as B2, hydrochloride
# [25] = day 10, listed as B2, hydrochloride
# [26] = day 0, listed as C1, hydrochloride
# [27] = day 5, listed as C1, hydrochloride
# [28] = day 10, listed as C1, hydrochloride
# [29] = day 0, listed as C3, hydrochloride
# [30] = day 5, listed as C3, hydrochloride
# [31] = day 10, listed as C3, hydrochloride
# [32] = day 0, listed as C2, hydrochloride
# [33] = day 5, listed as C2, hydrochloride
# [34] = day 10, listed as C2, hydrochloride
smiles,measurement,setting,value
"COc1ccc2cc3[n+](cc2c1OC)CCc1cc(O)c(O)cc1-3 [crystal form A, demethyleneberberine hydrochloride]",Solubility ranking among the four crystal forms,[1],>solubility of crystal form D of demethyleneberberine hydrochloride
same,Solubility comparison of the four crystal forms (summary),[2],>solubility of crystal form D of demethyleneberberine hydrochloride
same,Solubility ranking among the four crystal forms,[2],>solubility of crystal form D of demethyleneberberine hydrochloride
same,Solubility ranking among the four crystal forms,[3],>solubility of crystal form D of demethyleneberberine hydrochloride
same,X-Ray Powder Diffraction,[4]; day 0,Unchanged
same,Content (%),[4]; [8],99.62%
same,Content of Relevant Substance (%),[4]; [8],0.38%
same,X-Ray Powder Diffraction,[4]; day 5,Unchanged
same,Content (%),[4]; [9],99.63%
same,Content of Relevant Substance (%),[4]; [9],0.37%
same,Content (%),[4]; [10],99.61%
same,Content of Relevant Substance (%),[4]; [10],0.39%
same,X-Ray Powder Diffraction,[4]; [10],Unchanged
same,Stability in the high-temperature environment,[4],relatively stable
same,Stability under stability test conditions (summary),[4],stable
same,X-Ray Powder Diffraction,[5]; day 0,Unchanged
same,Content (%),[5]; [11],99.62%
same,Content of Relevant Substance (%),[5]; [11],0.38%
same,X-Ray Powder Diffraction,[5]; day 5,Unchanged
same,Content (%),[5]; [12],99.61%
same,Content of Relevant Substance (%),[5]; [12],0.39%
same,Content (%),[5]; [13],99.60%
same,Content of Relevant Substance (%),[5]; [13],0.40%
same,X-Ray Powder Diffraction,[5]; [13],Unchanged
same,Stability in the strong light irradiation environment,[5],relatively stable
same,Stability in the high-humidity environment,[6],relatively stable
same,X-Ray Powder Diffraction,[6]; day 0,Unchanged
same,Content (%),[6]; [14],99.62%
same,Content of Relevant Substance (%),[6]; [14],0.38%
same,X-Ray Powder Diffraction,[6]; day 5,Unchanged
same,Content (%),[6]; [15],99.58%
same,Content of Relevant Substance (%),[6]; [15],0.42%
same,X-Ray Powder Diffraction,[6]; day 10,Unchanged
same,Content (%),[6]; [16],99.60%
same,Content of Relevant Substance (%),[6]; [16],0.40%
same,AUC,"[7]; male SD rats, hydrochloride",1247 ng·h/mL
same,Cmax,"[7]; male SD rats, hydrochloride",292 ng/mL
"COc1ccc2cc3[n+](cc2c1OC)CCc1cc(O)c(O)cc1-3 [crystal form B, demethyleneberberine hydrochloride]",Solubility ranking among the four crystal forms,[1],>solubility of crystal form A of demethyleneberberine hydrochloride
same,Solubility comparison of the four crystal forms (summary),[2],>solubility of crystal form A of demethyleneberberine hydrochloride
same,Solubility ranking among the four crystal forms,[2],>solubility of crystal form A of demethyleneberberine hydrochloride
same,Solubility ranking among the four crystal forms,[3],>solubility of crystal form A of demethyleneberberine hydrochloride
same,X-Ray Powder Diffraction,[4]; day 0,Unchanged
same,Content (%),[4]; [17],99.82%
same,Content of Relevant Substance (%),[4]; [17],0.18%
same,X-Ray Powder Diffraction,[4]; day 5,Unchanged
same,Content (%),[4]; [18],99.62%
same,Content of Relevant Substance (%),[4]; [18],0.38%
same,Content (%),[4]; [19],99.67%
same,Content of Relevant Substance (%),[4]; [19],0.33%
same,X-Ray Powder Diffraction,[4]; [19],Unchanged
same,Stability in the high-temperature environment,[4],relatively stable
same,Stability under stability test conditions (summary),[4],stable
same,X-Ray Powder Diffraction,[5]; day 0,Unchanged
same,Content (%),[5]; [20],99.58%
same,Content of Relevant Substance (%),[5]; [20],0.42%
same,X-Ray Powder Diffraction,[5]; day 5,Unchanged
same,Content (%),[5]; [21],99.77%
same,Content of Relevant Substance (%),[5]; [21],0.23%
same,Content (%),[5]; [22],99.67%
same,Content of Relevant Substance (%),[5]; [22],0.33%
same,X-Ray Powder Diffraction,[5]; [22],Unchanged
same,Stability in the strong light irradiation environment,[5],relatively stable
same,Stability in the high-humidity environment,[6],relatively stable
same,X-Ray Powder Diffraction,[6]; day 0,Unchanged
same,Content (%),[6]; [23],99.58%
same,Content of Relevant Substance (%),[6]; [23],0.42%
same,X-Ray Powder Diffraction,[6]; day 5,Unchanged
same,Content (%),[6]; [24],99.60%
same,Content of Relevant Substance (%),[6]; [24],0.40%
same,X-Ray Powder Diffraction,[6]; day 10,Unchanged
same,Content (%),[6]; [25],99.56%
same,Content of Relevant Substance (%),[6]; [25],0.44%
same,AUC,"[7]; male SD rats, hydrochloride",1150 ng·h/mL
same,Cmax,"[7]; male SD rats, hydrochloride",642 ng/mL
same,tmax,"[7]; male, SD, rat, po, 200 mg/kg, read-out: tmax",1 h
"COc1ccc2cc3[n+](cc2c1OC)CCc1cc(O)c(O)cc1-3 [crystal form C, demethyleneberberine hydrochloride]",Solubility ranking among the four crystal forms,[1],>solubility of crystal form B of demethyleneberberine hydrochloride
same,Solubility comparison of the four crystal forms (summary),[2],highest; also recorded: >solubility of crystal form B of demethyleneberberine hydrochloride
same,Solubility ranking among the four crystal forms,[2],>solubility of crystal form B of demethyleneberberine hydrochloride
same,Solubility ranking among the four crystal forms,[3],>solubility of crystal form B of demethyleneberberine hydrochloride
same,X-Ray Powder Diffraction,[4]; day 0,Unchanged
same,Content (%),[4]; [26],99.18%
same,Content of Relevant Substance (%),[4]; [26],0.82%
same,X-Ray Powder Diffraction,[4]; day 5,Unchanged
same,Content (%),[4]; [27],99.21%
same,Content of Relevant Substance (%),[4]; [27],0.79%
same,Content (%),[4]; [28],99.19%
same,Content of Relevant Substance (%),[4]; [28],0.81%
same,X-Ray Powder Diffraction,[4]; [28],Unchanged
same,Stability in the high-temperature environment,[4],relatively stable
same,Stability under stability test conditions (summary),[4],stable
same,X-Ray Powder Diffraction,[5]; day 0,Unchanged
same,Content (%),[5]; [29],99.57%
same,Content of Relevant Substance (%),[5]; [29],0.43%
same,X-Ray Powder Diffraction,[5]; day 5,Unchanged
same,Content (%),[5]; [30],99.49%
same,Content of Relevant Substance (%),[5]; [30],0.51%
same,Content (%),[5]; [31],99.55%
same,Content of Relevant Substance (%),[5]; [31],0.45%
same,X-Ray Powder Diffraction,[5]; [31],Unchanged
same,Stability in the strong light irradiation environment,[5],relatively stable
same,Stability in the high-humidity environment,[6],relatively stable
same,X-Ray Powder Diffraction,[6]; day 0,Unchanged
same,Content (%),[6]; [32],99.77%
same,Content of Relevant Substance (%),[6]; [32],0.23%
same,X-Ray Powder Diffraction,[6]; day 5,Unchanged
same,Content (%),[6]; [33],99.72%
same,Content of Relevant Substance (%),[6]; [33],0.28%
same,X-Ray Powder Diffraction,[6]; day 10,Unchanged
same,Content (%),[6]; [34],99.57%
same,Content of Relevant Substance (%),[6]; [34],0.43%
same,AUC,"[7]; male SD rats, hydrochloride",1077 ng·h/mL
same,Cmax,"[7]; male SD rats, hydrochloride",1262 ng/mL
same,tmax,"[7]; male SD rats, hydrochloride",0.5 h
